Results published in the NIST ThermoML archive (doi:10.1021/acs.jced.6b00856).

Experiment: mn = molality of the nth substance listed, in mol/kg
Conditions: 101.3 kPa, Liquid; for viscosity: Capillary tube (Ostwald / Ubbelohde) method; for mass density: Pycnometric method

C1CNCCN1 [piperazine] + O
Conditions | mass density, 303.15 K [kg/m3] | mass density, 313.15 K [kg/m3] | mass density, 323.15 K [kg/m3] | viscosity, 303.15 K [mPa·s] | viscosity, 313.15 K [mPa·s] | viscosity, 323.15 K [mPa·s]
m1 = 0.66 | 997.55 | 994.45 | 989.89 | 0.987 | 0.789 | 0.641
m1 = 1.1 | 999.58 | 995.73 | 991.34 | 1.169 | 0.916 | 0.747
m1 = 1.7 | 1002.4 | 998.08 | 993.64 | 1.456 | 1.124 | 0.893
